Results from US7642283B2, “Mitochrondrial permeability transition pore affinity labels and modulators” (Hoffmann-La Roche Inc., priority 2003, dated 2010).

Columns and labels:
MPTP [1] = assay: MPTP induced by phenylarsineoxide or ATR; type: biochemical
MPTP [2] = test system: T1, MPTP; assay: Ca2+-induced swelling in deenergized liver mitochondria; type: biochemical; details: n=2; 30 min after addition of 200 μM Ca2+; read-out: EC50 of MPTP inhibition in deenergized mitochondria
T1 construct: other: n=2; 30 min after addition of 200 μM Ca2+

Cyp-D = Cyp-D (Homo sapiens, UniProt P30405); assay: Cyp-D peptidyl prolyl cis-trans isomerase enzymatic activity; type: biochemical; details: at concentrations completely blocking MPTP
Sequence of Cyp-D (P30405 30-207): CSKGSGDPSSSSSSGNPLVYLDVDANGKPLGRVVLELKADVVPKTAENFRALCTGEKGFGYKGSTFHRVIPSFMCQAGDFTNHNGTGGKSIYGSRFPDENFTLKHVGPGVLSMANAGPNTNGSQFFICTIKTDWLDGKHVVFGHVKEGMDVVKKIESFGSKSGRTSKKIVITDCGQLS

MPTP [3] = biological target: T2, MPTP (Rattus norvegicus, UniProt Q9Z2L0); assay: Ca2+-induced depolarisation (membrane potential, Rhodamine-123) of rat brain mitochondria; type: biochemical
T2 construct: other: n=2; glutamate/malate; other: glutamate/malate; 20 min; mean±SEM; unit not given; other: 300 nM; relieved by 50 μM Ub5
T2 sequence (Q9Z2L0 2-283): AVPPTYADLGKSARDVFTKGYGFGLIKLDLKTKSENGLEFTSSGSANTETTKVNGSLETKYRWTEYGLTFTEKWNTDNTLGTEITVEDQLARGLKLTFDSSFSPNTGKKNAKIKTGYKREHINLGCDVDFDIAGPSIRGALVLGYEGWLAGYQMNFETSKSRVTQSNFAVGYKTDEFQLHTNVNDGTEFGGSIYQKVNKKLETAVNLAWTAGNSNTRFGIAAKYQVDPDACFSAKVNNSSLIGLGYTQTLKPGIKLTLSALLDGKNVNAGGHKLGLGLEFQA

[4] = test system: mitochondrial respiration; assay: Mitochondrial respiration (oxygen consumption); type: biochemical; details: at concentrations completely blocking MPTP
Experimental: Isolated liver mitochondria (˜0.5 mg protein ml^−1) were incubated in a batch mode in the presence of 20 nM [^3H]TPP ([^3H]Tetraphenylphosphonium ([^3H]TPP, 24-29 Ci/mmol) from Amersham Biosciences, Switzerland) for 15 min at 25° C. Aliquots (100 μl) of the mixture were then distributed into 96-well plates containing 100 μl of the test compound and the incubation prolonged for 15 min at 25° C. Samples were then filtered through 0.3% (v/v) polyethyleneimmine-treated GF/B glass fiber filters using a 96-channel cell harvester and the filters washed twice with 1 ml of buffer. Fifty μl of MICROSCINT 40 (Packard) were then added to each well, before counting for radioactivity in a TopCount scintillation counter (Packard). Non-specific uptake was determined in the presence of 1 mM unlabeled TPP or 1 μM carbonylcianide-p-trifluoromethoxyphenyl hydrazone (FCCP). Mitochondrial oxygen consumption was measured polarographically at 25° C. using a Clark-type electrode.
Compounds found to inhibit MPTP where then counter-screened using uptake of the potentiometric probe [^3H]-TPP (Hoek, J. B., Nicholls, D. G. & Williamson, J. R. (1980) J. Biol. Chem. 255, 1458-1564) for determining in a semi-quantitative, but rapid way whether they interfered with mitochondrial respiration (e.g. protonophores). […]

VDAC1 = biological target: T3, VDAC1 (Rattus norvegicus, UniProt Q9Z2L0); assay: Affinity labeling of rat mitochondria with the tritiated spiro compound, SDS-PAGE and fluorography; type: binding; details: rat brain and liver mitochondria; 10 nM radiolabel; increasing concentration
T3 construct: from tissue; host or cells: Percoll-purified rat brain and liver mitochondria
T3 sequence (Q9Z2L0 whole entry): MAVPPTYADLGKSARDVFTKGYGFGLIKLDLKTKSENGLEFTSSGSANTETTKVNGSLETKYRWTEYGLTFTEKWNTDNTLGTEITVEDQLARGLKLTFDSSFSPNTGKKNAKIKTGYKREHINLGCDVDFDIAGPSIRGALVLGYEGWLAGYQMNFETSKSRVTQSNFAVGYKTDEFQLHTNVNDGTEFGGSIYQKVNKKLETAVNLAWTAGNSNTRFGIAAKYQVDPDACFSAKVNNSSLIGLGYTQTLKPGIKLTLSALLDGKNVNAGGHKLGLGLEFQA
Experimental: FIG. 6: Affinity-labeling of isolated rat brain (A) and liver (B) mitochondria. Mitochondrial preparations were incubated in the presence of 10 nM Spiro[cyclopentane-1,5′-[5H]dibenzo[a,d]cyclohepten]-2-one,10′,11′-t2-10′,11′-dihydro-3-methylene- for 15 min at 25° C. in presence or absence of various concentrations of Spiro[cyclopentane-1,5′-[5H]dibenzo[a,d]cyclohepten]-2-one,10′,11′-dihydro-3-methylene-(unlabeled). Samples were submitted to SDS-PAGE (see Experimental Procedures section for details) and fluorography. The fluorograms of the gels are shown. The molecular mass scale (kDa) is shown in the ordinate.
(§1) FIG. 8: (A) Effect of monobromobimano (MBBM) and phenylarsino oxide (PhAO) on VDAC1 labeling by Spiro[cyclopentane-1,5′-[5H]dibenzo[a,d]cyclohepten]-2-one,10′,11′-t2-10′,11′-dihydro-3-methylene- in rat brain mitochondria. Experimental conditions were as in the legend to FIG. 5. (B) Effect of various MPTP inhibitors, atractyloside (ATR) and DIDS on VDAC1 labeling by Spiro[cyclopentane-1,5′-[5H]dibenzo[a,d]cyclohepten]-2-one,10′,11′-t2-10′,11′-dihydro-3-methylene- in rat brain mitochondria. Mitochondria were exposed to DIDS for 5 min before rinsing for removal of the free agent and labeling with Spiro[cyclopentane-1,5′-[5H]dibenzo[a,d]cyclohepten]-2-one,10′,11′-t2-10′,11′-dihydro-3-methylene.
Percoll purified mitochondria (˜30 μg protein per sample) were incubated in the presence of 10 nM Spiro[cyclopentane-1,5′-[5H]dibenzo[a,d]cyclohepten]-2-one,10′,11′-t2-10′,11′-dihydro-3-methylene- in a final volume of 200 μl. After incubation for 15 min at 25° C., samples were centrifuged at 25000×g and the mitochondrial pellet rinsed twice with buffer. Samples were then solubilized in sample buffer containing β-mercaptoethanol (1 h at 37° C.) and subjected to SDS-polyacrylamide gel-electrophoresis (SDS-PAGE) on Tris-glycine Novex pre-cast mini-gels (12% monomer concentration, Invitrogen BV, The Netherlands). After Coomassie Blue staining, gels were processed for fluorography by soaking in Amplify™ (Amersham Biosciences), drying and exposing to X-ray BioMax MS film with BioMax MS intensifying screen (Kodak) at −80° C. for the appropriate time.
as §1, with “Effect” for “FIG. 8: (A) Effect”, “monobromobimano” for “monobromobimano (MBBM)”, “oxide” for “oxide (PhAO)”, “Example 12 (FIG. 8A).” for “the legend to FIG. 5. (B)”, “Spiro[cyclopentane-1,5′-[5H]dibenzo[a,d]cyclohepten]-2-one,10′,11′-t2-10′,11′-dihydro-3-methylene (FIG. 8B).” for “Spiro[cyclopentane-1,5′-[5H]dibenzo[a,d]cyclohepten]-2-one,10′,11′-t2-10′,11′-dihydro-3-methylene.”

MPTP [5] = biological target: T2, MPTP; assay: Ca2+-induced swelling in rat brain mitochondria; type: biochemical; details: 80 μM CaCl2; potency in the range of liver mitochondria
Experimental: The effect of Spiro[cyclopentane-1,5′-[5H]dibenzo[a,d]cyclohepten]-2-one,10′,11′-dihydro-3-methylene- at inhibiting MPTP was also investigated in mitochondria isolated from rat forebrain. […] Due to the difficulties mentioned above, the effect of Spiro[cyclopentane-1,5′-[5H]dibenzo[a,d]cyclohepten]-2-one,10′,11′-dihydro-3-methylene- on MPTP in brain mitochondria was more accurately investigated by subjecting mitochondria isolated from rat forebrain to a series of Ca^2+ pulses (5 μM, ˜150 nmol mg protein^−1) and by monitoring extramitochondrial Ca^2+ or using fluororescent probes.

## C=C1CCC2(C1=O)c1ccccc1CCc1ccccc12 [Spiro[cyclopentane-1,5′-[5H]dibenzo[a,d]cyclohepten]-2-one,10′,11′-dihydro-3-methylene-]
MPTP [1]; ATR 50 μM
  Inhibition of MPTP induced by ATR: inhibited
MPTP [1]; phenylarsineoxide 25 μM
  Inhibition of MPTP induced by phenylarsineoxide: inhibited
MPTP [2]
  EC50: 0.37 µM
Cyp-D
  Inhibition of Cyp-D peptidyl prolyl cis-trans isomerase activity: did not inhibit
MPTP [3]; 300 nM, 20 μM Ca2+, relieved by 50 μM Ub5
  Inhibition of Ca2+-induced depolarisation: inhibited
MPTP [3]; series of 5 μM Ca2+ additions, membrane potential monitored
  Number of Ca2+ additions necessary to induce complete depolarization: increased
[4]
  Inhibition of mitochondrial respiration (basal, ADP-induced and uncoupled): did not inhibit
VDAC1
  Effect of unlabeled compound on labeling of the ~32 kDa band: inhibited
MPTP [5]
  Inhibition of swelling in brain mitochondria: inhibited
